This is an account of results in patent US8158791B2, “Aza-substituted spiro derivatives” (MSD K.K., priority 2005, dated 2012).

Structures are written as SMILES. pIC50: −log10 of the molar value.

The target of this assay is T1, human histamine-H3 receptor (Homo sapiens, UniProt Q9Y5N1).
T1 construct: expressed in transfected cells; host or cells: HEK293 and CHO-K1 (membrane preparation)
T1 sequence (Q9Y5N1 whole entry): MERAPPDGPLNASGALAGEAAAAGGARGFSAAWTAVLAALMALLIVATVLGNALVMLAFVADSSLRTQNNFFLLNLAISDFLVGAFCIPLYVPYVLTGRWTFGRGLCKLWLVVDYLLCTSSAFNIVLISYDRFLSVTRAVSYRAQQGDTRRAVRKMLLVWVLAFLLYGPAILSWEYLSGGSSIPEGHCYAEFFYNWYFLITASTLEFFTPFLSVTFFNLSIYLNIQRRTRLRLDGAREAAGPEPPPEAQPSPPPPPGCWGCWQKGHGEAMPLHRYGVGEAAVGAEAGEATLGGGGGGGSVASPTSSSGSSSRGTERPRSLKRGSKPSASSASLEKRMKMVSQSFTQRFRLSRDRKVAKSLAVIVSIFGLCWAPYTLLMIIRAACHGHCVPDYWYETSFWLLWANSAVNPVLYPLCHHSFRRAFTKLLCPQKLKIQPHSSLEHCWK
Nature of the assay: Histamine analogue-binding inhibition test. Conditions: 50% inhibitory concentration to specific [3H]N-α-methylhistamine binding; membrane specimen of histamine-H3 receptor expression cells; 25° C., 2 hours, pH 7.4. The source says: A cDNA sequence coding for a human histamine-H3 receptor [see WO00/39164) was cloned with expression vectors pCR2.1, pEF1× (by Invitrogen) and pCI-neo (by Promega). The resulting expression vector was transfected into host cells, HEK293 and CHO-K1 (American Type Culture Collection), according to a cationic lipid process [see Proceedings of the National Academy of Sciences of the United States of America, Vol., 84, p. 7413 (1987)] to obtain histamine-H3 receptor expression cells.
A membrane specimen prepared from the cells having expressed a histamine-H3 receptor was incubated in an assay buffer (50 mM Tris buffer, pH 7.4) along with a test compound and 20,000 cpm [3H]N-α-methylhistamine (by NEN) therein, at 25° C. for 2 hours, and then filtered through a glass filter GF/C. After washed with 50 mM Tris buffer (pH 7.4), the radioactivity on the glass filter was determined. The non-specific binding was determined in the presence of 10 μM thioperamide (by SIGAM), and the 50% inhibitory concentration (IC50) of the test compound to the specific N-alpha-methylhistamine binding was calculated [see Molecular Pharmacology, Vol. 55, p. 1101 (1999)].
In the case of `CN(CCN1CCCC1)C(=O)[C@H]1CC[C@@]2(CC1)OC(=O)c1ncccc12` [Example 3, Trans-3′-oxo-N-methyl-N-(2-pyrrolidin-1-ylethyl)-spiro[cyclohexane-1,1′-(3′H)-4′-azaisobenzofuran]-4-carboxamide], the pIC50 is 9.14.
In turn, `COc1ccc2c(n1)C(=O)O[C@]21CC[C@H](C(=O)N(C)CCN2CCCCC2)CC1` [Example 11, Trans-5′-methoxy-3′-oxo-N-methyl-N-(2-piperidin-1-ylethyl)-spiro[cyclohexane-1,1′-(3′H)-4′-azaisobenzofuran]-4-carboxamide] showed a pIC50 of 9.04.
On to `COc1ccc2c(n1)C(=O)O[C@]21CC[C@H](C(=O)N(C)CCN2CCCC2)CC1` [Example 13, Trans-5′-methoxy-3′-oxo-N-methyl-N-(2-pyrrolidin-1-ylethyl)-spiro[cyclohexane-1,1′-(3′H)-4′-azaisobenzofuran]-4-carboxamide], for which the pIC50 was 9.04.
In the case of `CN(CCN1CCCC1)C(=O)[C@H]1CC[C@@]2(CC1)OC(=O)c1nc(N3CCCCC3)ccc12` [Example 17, Trans-5′-(piperidin-1-yl)-3′-oxo-N-methyl-N-(2-pyrrolidin-1-ylethyl)-spiro[cyclohexane-1,1′-(3′H)-4′-azaisobenzofuran]-4-carboxamide] it was 8.72.
With `CN(CCN1CCCC1)C(=O)[C@H]1CC[C@@]2(CC1)OC(=O)c1nc(-c3ccccc3)ccc12` [Example 21, Trans-5′-phenyl-3′-oxo-N-methyl-N-(2-pyrrolidin-1-ylethyl)-spiro[cyclohexane-1,1′-(3′H)-4′-azaisobenzofuran]-4-carboxamide], the pIC50 is 9.38.
In turn, `COc1nccc2c1C(=O)O[C@]21CC[C@H](C(=O)N(C)CCN2CCCCC2)CC1` [Example 34, Trans-4′-methoxy-3′-oxo-N-methyl-N-(2-piperidin-1-ylethyl)-spiro[cyclohexane-1,1′-(3′H)-5′-azaisobenzofuran]-4-carboxamide] gave a pIC50 of 9.49.
Take `Cc1nccc2c1C(=O)O[C@]21CC[C@H](C(=O)N(C)CCN2CCCCC2)CC1` [Example 41, Trans-4′-methyl-3′-oxo-N-methyl-N-(2-piperidin-1-ylethyl)-spiro[cyclohexane-1,1′-(3′H)-5′-azaisobenzofuran]-4-carboxamide]: the pIC50 is 9.29.
Molecule `CN(CCN1CCCCC1)C(=O)[C@H]1CC[C@@]2(CC1)OC(=O)c1c(-c3cnn(C)c3)nccc12` [Example 45, Trans-4′-(1-methyl-1H-pyrazol-4-yl)-3′-oxo-N-methyl-N-(2-piperidin-1-ylethyl)-spiro[cyclohexane-1,1′-(3′H)-5′-azaisobenzofuran]-4-carboxamide] showed a pIC50 of 9.85.
In the case of `CN(CCN1CCCCC1)C(=O)[C@H]1CC[C@@]2(CC1)OC(=O)c1nc(-c3cnccn3)ccc12` [Example 54, Trans-5′-pyrazinyl-3′-oxo-N-methyl-N-(2-piperidin-1-ylethyl)-spiro[cyclohexane-1,1′-(3′H)-4′-azisobenzofuran]-4-carboxamide] it was 10.15.
